Measurements: the supplement of paper PMC13207355
± gives the standard deviation of the averaged measurements.

Columns and labels:
Conditions in all cases: exposure time: 72 h
E13 [1] = patient-derived glioblastoma stem cells of classical subtype; test: phenotypic distance (Euclidean, principal components) from DMSO controls (arbitrary units); higher = stronger morphological change
E21 [2] = patient-derived glioblastoma stem cells of mesenchymal subtype; test: as above
E28 [3] = patient-derived glioblastoma stem cells of classical subtype; test: as above
E31 = patient-derived glioblastoma stem cells of proneural subtype; test: as above
E34 [4] = patient-derived glioblastoma stem cells of proneural subtype; test: as above
E57 [5] = patient-derived glioblastoma stem cells of mesenchymal subtype; test: as above
FT3469 [6] = normal neural stem cell line; test: as above
E13 [7] = test: surviving fraction (nuclei count normalised to DMSO); higher = more cells surviving (less toxic)
E21 [8] = test: as above
E28 [9] = test: as above
E34 [10] = test: as above
E57 [11] = test: as above
FT3469 [12] = test: as above
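Throughout, for phenotypic distance (Euclidean, principal components) from DMSO controls: cell Painting imaging in 384-well plates, CellProfiler features reduced to at least 20 principal components, Euclidean distance versus same-plate DMSO vehicle wells (0.1% v/v), median over six images per well.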
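Throughout, for surviving fraction (nuclei count normalised to DMSO): nuclei counted by high-content imaging of Hoechst-stained cells in laminin-coated 384-well plates, relative to 0.1% DMSO vehicle wells, with staurosporine as cell-death control.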

Cc1ccc(C(=O)Nc2ccc(CN3CCN(C)CC3)c(C(F)(F)F)c2)cc1C#Cc1cnc2cccnn12 [Ponatinib]
phenotypic distance
Conditions | E13 [1] | E21 [2] | E28 [3] | E31 | E34 [4] | E57 [5] | FT3469 [6]
4.1 nM | 1.34 | 2.02 | 0.791 | 0.882 | 1.37 | 3.43 | 1.73
12.3 nM | 1.37 | 5.3 | 1.19 | 1.09 | 1.08 | 4.1 | 2.15
37 nM | 1.75 | 1.87 | 1.3 | 2.13 | 1.46 | 3.63 | 1.36
111.1 nM | 2.38 | 2.05 | 1.57 | 2.63 | 1.59 | 3.38 | 1.58
333.3 nM | 2.71 | 4.01 | 1.29 | 2.59 | 2.93 | 2.19 | 2.72
1000 nM | 3.02 | 9.73 | 2.75 | 11.1 | 3.77 | 4.53 | 4.78
3000 nM | 5.54 | 9.25 | 3.32 | 8.04 | 5.85 | 5.68 | 8.72

CC(C)(C)CC(C)(C)c1ccc(OCCOCC[N+](C)(C)Cc2ccccc2)cc1 [Benzethonium chloride]
phenotypic distance
Conditions | E13 [1] | E21 [2] | E28 [3] | E31 | E34 [4] | E57 [5] | FT3469 [6]
4.11523 nM | 0.537 | 0.773 | 0.718 | 0.922 | 0.73 | 0.566 | 0.694
12.34567901 nM | 0.594 | 1.03 | 0.685 | 0.452 | 0.622 | 0.67 | 1.16
37.037 nM | 0.837 | 0.654 | 0.4 | 0.793 | 0.82 | 0.808 | 0.855
111.1111111 nM | 1.05 | 1 | 0.716 | 0.714 | 0.847 | 0.566 | 0.746
333.333 nM | 0.65 | 0.939 | 0.667 | 1.42 | 0.91 | 0.524 | 0.802
1000 nM | 1.22 | 1.3 | 0.382 | 1.81 | 1.21 | 2.04 | 2.79
3000 nM | 4.92 | 3.86 | 4.89 | 12.9 | 2.98 | 4.76 | 2.88

CCC(C)(C)C(=O)O[C@H]1C[C@@H](C)C=C2C=C[C@H](C)[C@H](CC[C@@H]3C[C@@H](O)CC(=O)O3)[C@H]21 [Simvastatin]
phenotypic distance
Conditions | E13 [1] | E21 [2] | E28 [3] | E31 | E34 [4] | E57 [5] | FT3469 [6]
4.1 nM | 0.99 | 1.6 | 1.08 | 0.808 | 1.5 | 1.7 | 1.31
12.3 nM | 0.654 | 1.96 | 1.13 | 0.911 | 1.01 | 0.806 | 1.32
37 nM | 1.13 | 2.52 | 1.19 | 0.566 | 0.739 | 1.4 | 2.33
111.1 nM | 1.23 | 2.77 | 1.42 | 1.39 | 0.945 | 0.799 | 1.86
333.3 nM | 2.27 | 4.05 | 1.61 | 1 | 1.16 | 1.19 | 2.21
1000 nM | 2.58 | 4.54 | 1.56 | 0.996 | 0.529 | 1.46 | 2.66
3000 nM | 4.02 | 5.96 | 3.67 | 3.45 | 1.72 | 3.54 | 3.39

CN1CCC(NC(=O)c2cc(-c3c(O)cc(O)cc3Oc3ccc([N+](=O)[O-])cc3)on2)CC1 [NMS-E973]
Conditions | phenotypic distance | surviving fraction
E13 [1], 4.1 nM | 0.577 ± 0.024 | –
E13 [1], 12.3 nM | 0.562 ± 0.12 | –
E13 [1], 37 nM | 0.639 ± 0.056 | –
E13 [1], 111.1 nM | 1.31 ± 0.59 | –
E13 [1], 333.3 nM | 4.489 ± 0.013 | –
E13 [1], 1000 nM | 5.34 ± 1 | –
E13 [1], 3000 nM | 5.62 ± 0.2 | –
E13 [7], 4.1 nM | – | 0.964 ± 0.14
E13 [7], 12.3 nM | – | 0.953 ± 0.091
E13 [7], 37 nM | – | 0.944 ± 0.13
E13 [7], 111.1 nM | – | 0.93 ± 0.01
E13 [7], 333.3 nM | – | 0.219 ± 0.06
E13 [7], 1000 nM | – | 0.192 ± 0.013
E13 [7], 3000 nM | – | 0.21 ± 0.015
E21 [2], 4.1 nM | 0.751 ± 0.092 | –
E21 [2], 12.3 nM | 0.626 ± 0.14 | –
E21 [2], 37 nM | 0.843 ± 0.42 | –
E21 [2], 111.1 nM | 1.82 ± 0.4 | –
E21 [2], 333.3 nM | 4.147 ± 0.0071 | –
E21 [2], 1000 nM | 5.3 ± 0.87 | –
E21 [2], 3000 nM | 5.82 ± 1.7 | –
E21 [8], 4.1 nM | – | 0.891 ± 0.061
E21 [8], 12.3 nM | – | 0.959 ± 0.0061
E21 [8], 37 nM | – | 0.926 ± 0.024
E21 [8], 111.1 nM | – | 0.817 ± 0.085
E21 [8], 333.3 nM | – | 0.416 ± 0.039
E21 [8], 1000 nM | – | 0.257 ± 0.072
E21 [8], 3000 nM | – | 0.116 ± 0.035
E28 [3], 4.1 nM | 0.607 ± 0.16 | –
E28 [3], 12.3 nM | 0.671 ± 0.17 | –
E28 [3], 37 nM | 0.573 ± 0.056 | –
E28 [3], 111.1 nM | 1.19 ± 0.29 | –
E28 [3], 333.3 nM | 2.09 ± 0.28 | –
E28 [3], 1000 nM | 5.08 ± 0.38 | –
E28 [3], 3000 nM | 6.81 ± 1.5 | –
E28 [9], 4.1 nM | – | 1.01 ± 0.049
E28 [9], 12.3 nM | – | 0.913 ± 0.054
E28 [9], 37 nM | – | 0.909 ± 0.017
E28 [9], 111.1 nM | – | 0.657 ± 0.054
E28 [9], 333.3 nM | – | 0.31 ± 0.068
E28 [9], 1000 nM | – | 0.0561 ± 0.006
E28 [9], 3000 nM | – | 0.0288 ± 0.023
E34 [4], 4.1 nM | 0.575 ± 0.35 | –
E34 [4], 12.3 nM | 0.675 ± 0.013 | –
E34 [4], 37 nM | 0.615 ± 0.26 | –
E34 [4], 111.1 nM | 1.12 ± 0.27 | –
E34 [4], 333.3 nM | 1.98 ± 0.084 | –
E34 [4], 1000 nM | 3.12 ± 0.68 | –
E34 [4], 3000 nM | 5.65 ± 0.52 | –
E34 [10], 4.1 nM | – | 0.907 ± 0.1
E34 [10], 12.3 nM | – | 0.921 ± 0.02
E34 [10], 37 nM | – | 0.855 ± 0.041
E34 [10], 111.1 nM | – | 0.804 ± 0.063
E34 [10], 333.3 nM | – | 0.45 ± 0.024
E34 [10], 1000 nM | – | 0.289 ± 0.025
E34 [10], 3000 nM | – | 0.0598 ± 0.021
E57 [5], 4.1 nM | 0.456 ± 0.053 | –
E57 [5], 12.3 nM | 0.414 ± 0.15 | –
E57 [5], 37 nM | 0.335 ± 0.044 | –
E57 [5], 111.1 nM | 1.07 ± 0.68 | –
E57 [5], 333.3 nM | 2.57 ± 0.079 | –
E57 [5], 1000 nM | 3.42 ± 0.32 | –
E57 [5], 3000 nM | 4.94 ± 0.064 | –
E57 [11], 4.1 nM | – | 0.941 ± 0.059
E57 [11], 12.3 nM | – | 1.01 ± 0.059
E57 [11], 37 nM | – | 0.9484 ± 0.0063
E57 [11], 111.1 nM | – | 1.01 ± 0.046
E57 [11], 333.3 nM | – | 0.373 ± 0.054
E57 [11], 1000 nM | – | 0.0919 ± 0.032
E57 [11], 3000 nM | – | 0.0144 ± 0.00078
FT3469 [6], 4.1 nM | 2.07 ± 2 | –
FT3469 [6], 12.3 nM | 1.21 ± 0.86 | –
FT3469 [6], 37 nM | 1.04 ± 0.15 | –
FT3469 [6], 111.1 nM | 1.74 ± 0.2 | –
FT3469 [6], 333.3 nM | 1.89 ± 0.16 | –
FT3469 [6], 1000 nM | 2.79 ± 0.12 | –
FT3469 [6], 3000 nM | 3.7 ± 0.28 | –
FT3469 [12], 4.1 nM | – | 0.918 ± 0.12
FT3469 [12], 12.3 nM | – | 0.951 ± 0.017
FT3469 [12], 37 nM | – | 0.975 ± 0.046
FT3469 [12], 111.1 nM | – | 0.798 ± 0.077
FT3469 [12], 333.3 nM | – | 0.677 ± 0.067
FT3469 [12], 1000 nM | – | 0.4901 ± 0.0038
FT3469 [12], 3000 nM | – | 0.4 ± 0.025
